Test results reported in article PMC11078746 (Nature, 2024).
Several values for one entry are separate records, joined by “and”; a condition that tells them apart may be missing. Identical values can stand only once. Like-named read-outs stand apart in the source and are kept apart here.

What was measured:
[1] = HRO761 blood PK in SW48 tumour-bearing mice; assay type: in vivo, mouse; details: for concentration at 4 h / concentration at 8 h / concentration at 0.5 h / concentration at 1 h / concentration at 2 h / concentration at 24 h / AUC: female, whole blood; for concentration at 4 h / concentration at 8 h / concentration at 0.5 h / concentration at 1 h / concentration at 2 h / concentration at 24 h: Free HRO761 blood concentration
Procedure: All animal studies were conducted in accordance with ethics and procedures covered by permit BS-2275 and BS-1975 issued by the Kantonales Veterinäramt Basel-Stadt and in strict adherence to guidelines of the Eidgenössisches Tierschutzgesetz and the Eidgenössische Tierschutzverordnung, Switzerland. All animal studies were approved by the internal ethics committee. All animals had access to food and water ad libitum and were identified with transponders. They were housed in a specific-pathogen-free facility in IVC racks under a 12 h–12 h light–dark cycle. To establish cell-line-derived xenograft models, 6–7-week-old female athymic nude (Crl:NU(NCr)-Foxn1^nu) or SCID-BEIGE (CB17.Cg-PrkdcscidLystbg-J/Crl) mice from Charles River were engrafted subcutaneously with 5 million tumour cells in HBSS (H6648, Sigma-Aldrich). For SNU-407, Lovo, IM95, RL95.2, Ishikawa and IGROV-1, the cells were concentrated in 50% Matrigel (354234, Corning). Patient-derived xenografts were induced and expanded by transplantation as previously described. […] For the efficacy experiment, mice were randomized into groups (n = 5–6) for a mean tumour size of 100–150 mm^3. […] Blood samples were collected on day 7 and 91. […] Tumour responses are reported with the measures of tumour volumes from the treatment start. […] Animals were randomized (n = 3) and tumour samples were collected at 0, 1, 4, 8 and 24 h on the first day and then collected 4 h after the last treatment on day 3, 8, 10, 14 (including a 24 h timepoint), 17 and 21. Tumours were excised, weighed, either frozen in liquid nitrogen and cryogenic dry pulverized with the CryoPrep system (model CP-02, Covaris) or processed to FFPE after fixation. […] On day 12, blood samples were collected for PK analysis. On the last day (3 h after the last treatment), tumours were excised, weighed, frozen in liquid nitrogen and cryogenic dry pulverized for PD analysis.
PK parameters were determined by non-compartmental analysis. Intravenous bolus studies in mouse, rat and dog were performed at 1, 1 and 0.1 mg per kg respectively (Extended Data Table 1).

PXR = PXR (Homo sapiens, UniProt O75469); experiment: PXR activation; assay type: in vitro ADME
PXR, sequence (O75469 whole entry, species assumed): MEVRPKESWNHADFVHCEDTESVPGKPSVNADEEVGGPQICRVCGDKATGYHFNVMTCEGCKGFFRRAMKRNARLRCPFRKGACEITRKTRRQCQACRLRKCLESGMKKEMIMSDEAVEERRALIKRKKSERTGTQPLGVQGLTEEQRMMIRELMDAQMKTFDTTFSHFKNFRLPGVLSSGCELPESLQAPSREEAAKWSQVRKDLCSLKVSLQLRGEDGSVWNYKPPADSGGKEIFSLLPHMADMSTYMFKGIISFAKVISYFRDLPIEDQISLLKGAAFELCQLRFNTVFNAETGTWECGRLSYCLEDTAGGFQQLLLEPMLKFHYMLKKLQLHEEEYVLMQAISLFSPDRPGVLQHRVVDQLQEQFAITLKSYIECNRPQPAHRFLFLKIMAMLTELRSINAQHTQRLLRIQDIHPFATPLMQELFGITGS

HCT116 cells = experiment: Cell cycle analysis by flow cytometry; assay type: cell-based, human; details: 10 µM for 24 h
Procedure: About 2 × 10^6 cells were collected by trypsin and washed once with PBS. Cells were pelleted and fixed in 100 µl 4% formaldehyde (Sigma-Aldrich, 47608) for 15 min at room temperature. Cells were washed by centrifugation with an excess of 1× PBS. Pellets were resuspended in 100 µl 1× PBS, then 900 µl of ice-cold methanol (Sigma-Aldrich, 34860) was added drop by drop while vortexing. Cells were incubated for 10 min on ice to permeabilize them. Cells were washed by centrifugation with excess of 1× PBS, pellets were resuspended in 100 µl anti-phosphorylated-histone H3 Ser10 conjugated to PE (Cell Signalling Technology, 5764) antibodies diluted 1:50 in 0.5% BSA PBS buffer and incubated for 1 h at room temperature protected from the light. […] Stained cells were analysed on the Cytoflex flow cytometer (Beckman Coulter).
Data were collected in 10^5 particle units and analysed with CytExpert v.2.4 software. […] These singlets were then analysed for DAPI (DNA content) and PE (phosphorylated histone H3 Ser10) staining intensities. Data were analysed to show the percentage of nuclei in the G1, S and G2/M phases using the DAPI channel and the percentage of cells specifically in G2 or M phase using the PE channel.

SNUC5 = experiment: CFA 10-14 day clonogenic assay; assay type: cell-based; details: Homo sapiens
SNU1 [2] = experiment: CFA 10-14 day clonogenic assay; assay type: cell-based; details: Homo sapiens
IGROV1 = experiment: 4 day proliferation assay (CellTiter-Glo); details: Homo sapiens, IGROV-1, 96 h, read-out: 4 day assay GI50
SNU1 [3] = experiment: 4 day proliferation assay (CellTiter-Glo); details: Homo sapiens, SNU1, 96 h, read-out: 4 day assay GI50

For `CCc1c(N2CCN(C(=O)c3ncnc(C)c3O)CC2)c(=O)n2nc(C3=CCOCC3)nc2n1CC(=O)Nc1ccc(C(F)(F)F)cc1Cl` [HRO761], the “Free HRO761 blood concentration” value ([1]; 20mg/kg po, qd, 0.5 h post treatment, single mouse) was 1.505 µM and 0.703 µM and 1.278 µM, the “Free HRO761 blood concentration” value ([1]; 20mg/kg po, qd, 1 h, single mouse) was 0.984 µM and 0.274 µM and 0.743 µM and the “Free HRO761 blood concentration” value ([1]; 20mg/kg po, qd, 2 h, single mouse) was 0.245 µM and 0.085 µM and 0.166 µM. The “Free HRO761 blood concentration” value ([1]; 20mg/kg po, qd, 4 h, single mouse) was 0.104 µM and 0.131 µM, the “Free HRO761 blood concentration” value ([1]; 20mg/kg po, qd, 8 h, single mouse) was 0.145 µM and 0.122 µM and the “Free HRO761 blood concentration” value ([1]; 20mg/kg po, qd, 24 h, single mouse) was 0.008 µM and 0.006 µM and 0.002 µM. The “Free HRO761 blood concentration” value ([1]; 40mg/kg, 0.5 h, single mouse) was 3.970 µM and 2.544 µM, the “Free HRO761 blood concentration” value ([1]; 40mg/kg, 1 h, single mouse) was 2.426 µM and 1.276 µM and the “Free HRO761 blood concentration” value ([1]; 40mg/kg, 2 h, single mouse) was 0.355 µM and 0.442 µM and 0.166 µM. The “Free HRO761 blood concentration” value ([1]; 40mg/kg, 4 h, single mouse) was 0.164 µM and 0.089 µM, the “Free HRO761 blood concentration” value ([1]; 40mg/kg, 8 h, single mouse) was 0.251 µM and 0.168 µM and the “Free HRO761 blood concentration” value ([1]; 40mg/kg, 24 h, single mouse) was 0.004 µM and 0.015 µM and 0.019 µM. The “Free HRO761 blood concentration” value ([1]; 60mg/kg, 0.5 h, single mouse) was 5.178 µM and 5.802 µM and 12.609 µM, the “Free HRO761 blood concentration” value ([1]; 60mg/kg, 1 h, single mouse) was 2.372 µM and 2.688 µM and 8.368 µM and the “Free HRO761 blood concentration” value ([1]; 60mg/kg, 2 h, single mouse) was 0.484 µM and 0.423 µM and 1.801 µM. The “Free HRO761 blood concentration” value ([1]; 60mg/kg, 4 h, single mouse) was 0.455 µM and 0.299 µM and 0.197 µM, the “Free HRO761 blood concentration” value ([1]; 60mg/kg, 8 h, single mouse) was 0.237 µM and 0.241 µM and the “Free HRO761 blood concentration” value ([1]; 60mg/kg, 24 h, single mouse) was 0.050 µM and 0.025 µM and 0.021 µM. The “Free HRO761 blood concentration” value ([1]; 120mg/kg, 0.5 h, single mouse) was 17.511 µM and 15.342 µM, the “Free HRO761 blood concentration” value ([1]; 120mg/kg, 1 h, single mouse) was 10.912 µM and 17.320 µM and the “Free HRO761 blood concentration” value ([1]; 120mg/kg, 2 h, single mouse) was 3.175 µM and 5.721 µM. For the same molecule, the “Free HRO761 blood concentration” value ([1]; 120mg/kg, 4 h, single mouse) was 0.693 µM and 0.631 µM, the “Free HRO761 blood concentration” value ([1]; 120mg/kg, 8 h, single mouse) was 0.515 µM and 0.718 µM and the “Free HRO761 blood concentration” value ([1]; 120mg/kg, 24 h, single mouse) was 0.210 µM and 0.035 µM and 0.095 µM. It also gave a concentration at 4 h ([1]; mouse, oral, 20 mg/kg, 20mg/kg po, qd, 4 h, single mouse) of 176 nM, a concentration at 8 h ([1]; mouse, oral, 20 mg/kg, 20mg/kg po, qd, 8 h, single mouse) of 154 nM and a concentration at 0.5 h ([1]; mouse, oral, 20 mg/kg, Mean, 20mg/kg po, qd, 0.5 h) of 1160 nM. The concentration at 1 h ([1]; mouse, oral, 20 mg/kg, Mean, 20mg/kg po, qd, 1 h) was 670 nM, the concentration at 2 h ([1]; mouse, oral, 20 mg/kg, Mean, 20mg/kg po, qd, 2 h) was 170 nM and the concentration at 4 h ([1]; mouse, oral, 20 mg/kg, Mean, 20mg/kg po, qd, 4 h) was 140 nM. The concentration at 8 h ([1]; mouse, oral, 20 mg/kg, Mean, 20mg/kg po, qd, 8 h) was 140 nM, the concentration at 24 h ([1]; mouse, oral, 20 mg/kg, Mean, 20mg/kg po, qd, 24 h) was 5.15 nM and the concentration at 0.5 h ([1]; mouse, oral, 40 mg/kg, Mean, 0.5 h) was 3140 nM. For the same molecule, the concentration at 1 h ([1]; mouse, oral, 40 mg/kg, Mean, 1 h) was 1860 nM, the concentration at 2 h ([1]; mouse, oral, 40 mg/kg, Mean, 2 h) was 320 nM and the concentration at 4 h ([1]; mouse, oral, 40 mg/kg, Mean, 4 h) was 130 nM. For the same molecule, the concentration at 8 h ([1]; mouse, oral, 40 mg/kg, Mean, 8 h) was 200 nM, the concentration at 24 h ([1]; mouse, oral, 40 mg/kg, Mean, 24 h) was 12.9 nM and the concentration at 0.5 h ([1]; mouse, oral, 40 mg/kg, 0.5 h, single mouse) was 2910 nM. The concentration at 1 h ([1]; mouse, oral, 40 mg/kg, 1 h, single mouse) was 1890 nM, the concentration at 4 h ([1]; mouse, oral, 40 mg/kg, 4 h, single mouse) was 124 nM and the concentration at 8 h ([1]; mouse, oral, 40 mg/kg, 8 h, single mouse) was 178 nM. The concentration at 0.5 h ([1]; mouse, oral, 60 mg/kg, Mean, 0.5 h) was 7860 nM, the concentration at 1 h ([1]; mouse, oral, 60 mg/kg, Mean, 1 h) was 4480 nM and the concentration at 2 h ([1]; mouse, oral, 60 mg/kg, Mean, 2 h) was 900 nM. It also gave a concentration at 4 h ([1]; mouse, oral, 60 mg/kg, Mean, 4 h) of 320 nM, a concentration at 8 h ([1]; mouse, oral, 60 mg/kg, Mean, 8 h) of 250 nM and a concentration at 24 h ([1]; mouse, oral, 60 mg/kg, Mean, 24 h) of 32.2 nM. The concentration at 8 h ([1]; mouse, oral, 60 mg/kg, 8 h, single mouse) was 276 nM, the concentration at 0.5 h ([1]; mouse, oral, 120 mg/kg, Mean, 0.5 h) was 15900 nM and the concentration at 1 h ([1]; mouse, oral, 120 mg/kg, Mean, 1 h) was 13900 nM. It also gave a concentration at 2 h ([1]; mouse, oral, 120 mg/kg, Mean, 2 h) of 4010 nM, a concentration at 4 h ([1]; mouse, oral, 120 mg/kg, Mean, 4 h) of 610 nM and a concentration at 8 h ([1]; mouse, oral, 120 mg/kg, Mean, 8 h) of 620 nM. It also gave a concentration at 24 h ([1]; mouse, oral, 120 mg/kg, Mean, 24 h) of 110 nM, a concentration at 0.5 h ([1]; mouse, oral, 120 mg/kg, 0.5 h, single mouse) of 14800 nM and a concentration at 1 h ([1]; mouse, oral, 120 mg/kg, 1 h, single mouse) of 13500 nM. For the same molecule, the concentration at 2 h ([1]; mouse, oral, 120 mg/kg, 2 h, single mouse) was 3120 nM, the concentration at 4 h ([1]; mouse, oral, 120 mg/kg, 4 h, single mouse) was 496 nM and the concentration at 8 h ([1]; mouse, oral, 120 mg/kg, 8 h, single mouse) was 620 nM. For the same molecule, the AUC ([1]; mouse, po, 10 mg/kg, read-out: AUCb, u above GI90, u) was 0.09 µM·h, the AUC ([1]; mouse, po, 20 mg/kg, read-out: AUCb, u above GI90, u) was 0.52 µM·h and the AUC ([1]; mouse, po, 30 mg/kg, read-out: AUCb, u above GI90, u) was 2.14 µM·h. It also gave an AUC ([1]; mouse, po, 40 mg/kg, read-out: AUCb, u above GI90, u) of 4 µM·h, an AUC ([1]; mouse, po, 60 mg/kg, read-out: AUCb, u above GI90, u) of 6.08 µM·h and an AUC ([1]; mouse, po, 120 mg/kg, read-out: AUCb, u above GI90, u) of 27 µM·h. The AUC ([1]; oral, mouse at 40 mg/kg qd, read-out: Efficacious daily AUC) was 31 µM·h, the PXR activation (PXR) was “No PXR” and the cell cycle effect (HCT116 cells) was “potent G2 cell cycle arrest”. The GI50 (SNUC5) was 418 nM, the GI50 (SNU1 [2]) was at least 10000 nM and the GI50 (IGROV1) was 2760 nM. It also gave a GI50 (SNU1 [3]) of at least 10000 nM.
